Experimental findings from US20260167637A1, “NLRP3 INFLAMMASOME INHIBITOR AND USE THEREOF” (TransThera Sciences (Nanjing), Inc., priority 2022, published 2026) are described below.

Data set [1] is described as follows: Stability in canine liver microsomes. In kind it is in vitro ADME. As to conditions: dog, canine liver microsomes 0.5 mg protein/mL, 1 μM test substance, β-NADPH 1 mM, 37° C.; for half-life at 1 μM: read-out: Canine t1/2. Here is the method:
(§1) Experimental Example 2: Evaluation of Stability of Compounds Disclosed Herein in Liver Microsomes
(§2) Composition of experimental incubation system:
(§3) An appropriate amount of the compound was precisely weighed out and dissolved in DMSO to prepare a 10.0 mM stock solution. The 10.0 mM stock solution was diluted with DMSO to 1.0 mM, and then diluted with phosphate buffer (containing 3 mM MgCl2) to prepare a 10 μM test substance working solution for later use (DMSO content in the reaction system: 0.1%).
(§4) An appropriate amount of β-NADPH was precisely weighed out and then prepared into a 5 mM β-NADPH working solution using phosphate buffer (containing 3 mM MgCl2) for later use.
(§5) (1) The liver microsomes (20 mg protein/mL) were taken out from a −80° C. freezer and pre-incubated on a 37° C. water bath thermostatic oscillator for 3 min to thaw for later use.
(§6) (2) A mixed solution of the incubation system (without β-NADPH) was prepared according to “composition of experimental incubation system” described above, and pre-incubated on a 37° C. water bath thermostatic oscillator for 2 min.
(§7) (3) Control group (without β-NADPH): 10 μL of phosphate buffer (containing 3 mM MgCl2) and 40 μL of the mixed solution of the incubation system in step (2) were taken and mixed, and the mixture was vortexed for 30 s and mixed well, resulting in a total reaction volume of 50 μL; the sample was duplicated. The mixture was placed on a 37° C. water bath thermostatic oscillator for incubation, and timing was started, with termination time points set at 0 min and 60 min.
(§8) (4) Sample group: 10 μL of the β-NADPH solution (5 mM) and 40 μL of the mixed solution in step (2) were taken and mixed, resulting in a total reaction volume of 50 μL; the mixture was vortexed for 30 s and mixed well; the sample was duplicated. The mixture was placed on a 37° C. water bath thermostatic oscillator for incubation, and timing was started, with termination time points set at 0 min, 5 min, 10 min, 20 min, 30 min, and 60 min.
(§9) (5) The mixture was vortexed for 5 min and then centrifuged at 4000 rpm for 10 min.
(§10) (6) 50 μL of the supernatant was taken and added to 150 μL of water, and the resulting mixture was vortexed and mixed well before LC/MS/MS analysis.
(§11) The half-life (t1/2) and clearance rate (CL) were calculated using the following first-order kinetic formula
(§12) Notes: k denotes the slope of the logarithm of the remaining amount of a compound vs. time, and Vd denotes apparent volume of distribution.
A general note: Liver microsomes are a subcellular fraction often used to study metabolism.

The nature of data set [2]: Stability in rat liver microsomes. In kind it is in vitro ADME. Conditions: rat liver microsomes 0.5 mg protein/mL, 1 μM test substance, β-NADPH 1 mM, 37° C.; for half-life at 1 μM: read-out: Rat t1/2. Here is the method: as §1, §2, §3, §4, §5, §6, §7, §8, §9, §10, §11, §12
Data set [3] in a line: Pharmacokinetic study in male SD rats. The class given is in vivo. As to conditions: rat, plasma. Here is the method:
Experimental Example 4: Pharmacokinetic Study of Compounds in Male SD Rats
The compounds were prepared into solutions using a mixed vehicle composed of 5% dimethyl sulfoxide, 20% (30% solutol), and 75% normal saline. The compound solutions were intragastrically administered to male SD rats at a dose of 5.0 mg/kg, and the blood collection time points were: 15 min, 30 min, 1 h, 2 h, 4 h, 6 h, 8 h, 10 h, and 24 h.
The compounds were prepared into solutions using a mixed vehicle composed of 5% dimethyl sulfoxide, 20% (30% solutol), and 75% normal saline. The compound solutions were intravenously injected into male SD rats at a dose of 1.0 mg/kg, and the blood collection time points were: 5 min, 15 min, 30 min, 1 h, 2 h, 4h, 6 h, 8h, 10 h, and 24 h.
Intravenous catheterization was performed on the animals the day before the administration. After the administration, blood samples of about 300 μL were collected from the jugular vein and placed into anticoagulation tubes containing EDTA-K2. The blood samples were centrifuged at 5000 rpm at 4° C. for 10 min to give plasma samples. The plasma samples were prepared within 30 min after blood collection. The plasma samples were stored in a −80° C. freezer before testing.

Another data set deals with T1, THP-1 cell NLRP3 (Homo sapiens, UniProt Q96P20).
T1 construct: endogenous in cells; host or cells: THP-1 cells, PMA-differentiated, stimulated with LPS and nigericin
T1 sequence (Q96P20 whole entry): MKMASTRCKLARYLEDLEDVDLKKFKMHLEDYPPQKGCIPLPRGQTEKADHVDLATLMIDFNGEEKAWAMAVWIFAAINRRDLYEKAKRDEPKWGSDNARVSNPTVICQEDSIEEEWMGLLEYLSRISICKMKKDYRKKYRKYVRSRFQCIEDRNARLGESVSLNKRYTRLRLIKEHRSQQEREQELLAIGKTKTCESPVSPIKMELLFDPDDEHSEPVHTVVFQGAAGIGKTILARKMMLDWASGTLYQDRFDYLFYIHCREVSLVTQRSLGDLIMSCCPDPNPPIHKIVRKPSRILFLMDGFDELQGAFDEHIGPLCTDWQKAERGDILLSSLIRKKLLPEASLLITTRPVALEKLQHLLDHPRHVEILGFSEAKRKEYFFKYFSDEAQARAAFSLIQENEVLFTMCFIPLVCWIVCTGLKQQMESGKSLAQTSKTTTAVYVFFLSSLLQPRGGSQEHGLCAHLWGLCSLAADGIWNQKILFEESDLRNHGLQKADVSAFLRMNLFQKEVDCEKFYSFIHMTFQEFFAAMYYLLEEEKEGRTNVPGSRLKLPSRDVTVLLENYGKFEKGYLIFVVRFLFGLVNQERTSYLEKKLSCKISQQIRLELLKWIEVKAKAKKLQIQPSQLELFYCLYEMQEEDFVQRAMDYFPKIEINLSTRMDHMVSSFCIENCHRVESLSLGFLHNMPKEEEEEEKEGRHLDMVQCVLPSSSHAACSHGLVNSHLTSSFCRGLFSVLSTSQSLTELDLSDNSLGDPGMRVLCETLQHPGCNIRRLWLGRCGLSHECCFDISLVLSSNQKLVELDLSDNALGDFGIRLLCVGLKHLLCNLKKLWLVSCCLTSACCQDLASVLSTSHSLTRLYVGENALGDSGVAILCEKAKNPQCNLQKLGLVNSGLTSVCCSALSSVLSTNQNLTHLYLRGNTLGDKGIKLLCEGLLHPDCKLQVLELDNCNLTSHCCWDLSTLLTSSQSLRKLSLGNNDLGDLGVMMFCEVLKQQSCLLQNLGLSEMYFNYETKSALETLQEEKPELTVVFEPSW
The data set is described as follows: Inhibitory activity against cell NLRP3 inflammasomes in THP-1 cells (LPS + nigericin, ELISA of supernatant). In kind it is cell-based. As to conditions: PMA-differentiated THP-1 cells, LPS 500 ng/mL 3 h, compound 1 h, nigericin 30 min; human IL-10 (so in the source) in supernatant by ELISA. An outline of the steps: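 PMA-differentiated (10 ng/mL, 16 h) THP-1 cells primed with 500 ng/mL LPS for 3 h in serum-free medium, then compound for 1 h (DMSO stock diluted 1:1000). Nigericin added for 30 min at 37 °C; IL-1β (printed as IL-10) in supernatant measured by ELISA.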
Background: ELISA stands for enzyme-linked immunosorbent assay.

Data set [4] in a line: Pharmacokinetic study in mice. In kind it is in vivo, female C57BL/6J mice. Conditions: female, C57BL/6J, mouse, plasma. Here is the method:
The compounds were prepared into solutions using a mixed vehicle composed of 5% dimethyl sulfoxide, 20% (30% solutol), and 75% normal saline. The compound solutions were intragastrically administered to female C57BL/6J mice at a dose of 10 mg/kg, and the blood collection time points were: 15 min, 30 min, 1 h, 2 h, 4 h, 6 h, 8 h, and 24 h.
The compounds were prepared into solutions using a mixed vehicle composed of 5% dimethyl sulfoxide, 20% (30% solutol), and 75% normal saline. The compound solutions were intravenously injected into female C57BL/6J mice at a dose of 5 mg/kg, and the blood collection time points were: 5 min, 15 min, 30 min, 1 h, 2 h, 4 h, 6 h, 8 h, and 24 h.
The samples to be tested were taken out from a −80° C. freezer, naturally thawed at room temperature, and then vortexed for 5 min.
Plasma samples of 10 μL from different individuals were accurately pipetted into 1.5 mL centrifuge tubes.
900 μL of a 100 ng/mL internal standard working solution (a solution of tolbutamide in acetonitrile) was added, and the mixture was well mixed.
After 5 min of vortexing, centrifugation was performed at 12,000 rpm for 5 min.
50 μL of the supernatant was accurately pipetted into a 96-well plate to which water was added in advance at 150 μL/well.
After 5 min of vortexing, LC-MS/MS analysis was performed.
The results of the test substance concentrations were output by Analyst 1.6.3 of AB Sciex.
Parameters such as mean, standard deviation, and coefficient of variation (excluding those output directly by Analyst 1.6.3) were calculated using Microsoft Excel. PK parameters were calculated using WinNonlin Phenoix 8.2 software NCA (Tmax was a median).

The microsomal CLint is the capacity of the preparation to metabolise the compound, expressed as a volume cleared per time. High values mean faster metabolism, low ones greater metabolic stability. The clearance is the volume of plasma or blood freed of the substance per unit of time. What is called bioavailability is dose-corrected exposure relative to a reference, in per cent. By IC50 is commonly meant the concentration that inhibits the measured activity by half. Turning to `C#Cc1ccc(-c2nnc(N[C@@H]3CCCN(CCO)C3)c(=O)n2C)c(O)c1` [Compound 42, (R)-3-(4-ethynyl-2-hydroxyphenyl)-6-((1-(2-hydroxyethyl)piperidin-3-yl)amino)-4-methyl-1,2,4-triazin-5(4H)-one], the microsomal CLint at 1 μM turned out to be 1.2 µL/min/mg in data set [1] and 4.2 µL/min/mg in data set [2]. Besides, the half-life at 1 μM in data set [1] turned out to be 1160 min; in data set [2], 330 min. The AUC(0-t) was found to be 2490 ng·h/mL in data set [3] (iv 1 mg/kg, read-out: AUClast iv (0-24 h)) and 9720 ng·h/mL in data set [3] (po 5 mg/kg, read-out: AUClast po (0-24 h)). Further, in data set [3] (iv 1 mg/kg, read-out: Cl—obs iv (clearance rate) (converted)), the clearance is 6.65 mL/min/kg. Also, the Vd in data set [3] (iv 1 mg/kg, read-out: Vss iv (distribution volume)) stood at 0.694 L/kg. The half-life in data set [3] (iv 1 mg/kg, read-out: tz1/2 iv (terminal half-life) (converted)) is 93 min; in data set [3] (po 5 mg/kg, read-out: tz1/2 po (terminal half-life) (converted)), 239 min. Also, the bioavailability in data set [3] (po 5 mg/kg vs iv 1 mg/kg, read-out: F% (absolute bioavailability)) was 77.8%. In addition, in data set [3] (po 5 mg/kg, median, read-out: Tmax po (time to peak plasma concentration)), the Tmax stood at 1 h. Besides, the Cmax in data set [3] (po 5 mg/kg, read-out: Cmax po (peak concentration)) amounted to 2490 ng/mL. On THP-1 cell NLRP3, the IC50 amounted to 4.6 nM.
For `C#Cc1ccc(-c2nnc(N[C@@H]3CCCN(CCO)C3)nc2C2CC2)c(O)c1` [Compound 100, (R)-2-(5-cyclopropyl-3-((1-(2-hydroxyethyl)piperidin-3-yl)amino)-1,2,4-triazin-6-yl)-5-ethynylphenol], the results for the microsomal CLint at 1 μM in data set [1] and in data set [2] were 2.8 µL/min/mg and 8.4 µL/min/mg, respectively. Besides, the figures for the half-life at 1 μM in data set [1] and in data set [2] were 495 min and 165 min, respectively. The IC50 at THP-1 cell NLRP3 amounted to 2.4 nM. The AUC(0-t) in data set [4] (iv 5 mg/kg, read-out: AUClast iv (0-24 h)) was found to be 4460 ng·h/mL; in data set [4] (po 10 mg/kg, read-out: AUClast po (0-24 h)), 6280 ng·h/mL. Also, the clearance in data set [4] (iv 5 mg/kg, read-out: Cl—obs iv (clearance rate) (converted)) is 18 mL/min/kg. For the same compound, in data set [4] (iv 5 mg/kg, read-out: Vss iv (distribution volume)), the Vd worked out at 2.41 L/kg. Further, the half-life in data set [4] (iv 5 mg/kg, read-out: tz1/2 iv (terminal half-life) (converted)) was 99 min; in data set [4] (po 10 mg/kg, read-out: tz1/2 po (terminal half-life) (converted)) it was 218 min. Besides, the bioavailability in data set [4] (po 10 mg/kg vs iv 5 mg/kg, read-out: F% (absolute bioavailability)) came out at 68.4%. Further, the Tmax in data set [4] (po 10 mg/kg, median, read-out: Tmax po (time to peak plasma concentration)) worked out at 15 min. The Cmax in data set [4] (po 10 mg/kg, read-out: Cmax po (peak concentration)) is 1720 ng/mL.
